Reference: patent US20050019258A1, “Compound testing method” (priority 2003, published 2005)
Where two headings read alike, the source gives them in different places.

Tests used:
[1] = tested on: patients with detrusor hyperreflexia; conditions: 13 patients positive at baseline, cited from earlier work
guinea-pig bladder [2] = experiment: Ice-water test (IWT) in anaesthetised guinea-pig bladder, effect of RTX treatment; format: in vivo
Method: (§1) Anaesthesia was induced in female Dunkin-Hartley guinea-pigs (326-416 g) by exposure to 4% halothane in oxygen. A surgical level of anaesthesia was then obtained by administration of 1.2 g/kg i.p. urethane followed by 40 mg/kg α-chloralose via a catheterised jugular vein. Supplementary doses of urethane (0.05 g/kg i.v.) were given if required. Rectal temperature was maintained between 36.5 and 37° C. via a Harvard homeothermic blanket control unit and additional heating lamp. […] The trachea was cannulated and the animals artificially respired using an Ugo-Basile rodent ventilator. A carotid arterial blood sample (0.3 ml) was analysed for blood gases using a GEM Premier 3000 analyser and the ventilation volume adjusted, with air intake enriched with O2 if necessary, to set the level of blood PO2>70 mmHg, PCO2<40 mmHg and pH between 7.36 and 7.46.
(§2) The urinary bladder was exposed via a midline laparotomy and a double lumen catheter inserted into the lumen through an incision in the dome. The catheter was tied in place below the flanged tip of the outer tubing, followed by closure of the abdominal incision. […] The amplified EUS electromyogram (EUS EMG), the integrated EUS EMG and bladder pressure signals were recorded using Spike2 software (Cambridge Electronic Design). […]

bladder cooling reflex [3] = conditions: 0.6 mM menthol in cats; cited from earlier work
guinea-pig bladder [4] = experiment: Ice-water test (IWT) in anaesthetised guinea-pig bladder, effect of menthol; format: in vivo
Method: as §1, §2

bladder cooling reflex [5] = conditions: 0.5 mM menthol in patients; cited from earlier work

## C=C(C)[C@]12C[C@@H](C)[C@@]34O[C@](Cc5ccccc5)(O[C@@H]1[C@@H]3C=C(COC(=O)Cc1ccc(O)c(OC)c1)C[C@]1(O)C(=O)C(C)=C[C@@H]41)O2 [RTX, resiniferatoxin]
[1]; at 14 days, 50 or 100 nM RTX
  additional patients in whom IWT became negative: 2
[1]; at 90 days post treatment, 50 or 100 nM RTX
  number of cases with negative IWT: 8 cases
[1]; immediately after instillation of 50 or 100 nM RTX
  number of patients in whom IWT became negative: 4 patients
guinea-pig bladder [2]; 500 nM RTX infused into bladder
  desensitisation of the 3° C. induced reduction in TV: Desensitisation
guinea-pig bladder [2]; 500 nM RTX, 100 min post RTX infusion, 95% C.I. −0.51, 0.20, p>0.05
  difference of TV to 3° C. vs TV for 38° C. control response before RTX: −0.16

## CC1CCC(C(C)C)C(O)C1 (stereo not drawn) [menthol]
Bladder cooling reflex [3]
  effect on bladder cooling reflex (shift of threshold temperature towards higher temperatures): Potentiation of the bladder cooling reflex
guinea-pig bladder [4]; 0.6 mM menthol infused into bladder, 3° C. saline infusion, TV before menthol 1.90 ml, n=4
  threshold volume (TV) for micturition at 3° C. following menthol treatment: 0.95 mL
guinea-pig bladder [4]; 0.6 mM menthol, 95% C.I. −1.33, −0.57, p<0.001
  difference in TV at 3° C. after menthol vs before menthol: −0.95
Bladder cooling reflex [5]
  effect on bladder cooling reflex (shift of threshold temperature towards higher temperatures): Potentiation of the bladder cooling reflex
